Assay results reported in US20240382730A1, “FLEXIBLE MICRONEEDLE ARRAY PATCH FOR CHRONIC WOUND OXYGENATION AND BIOFILM ERADICATION” (Purdue Research Foundation, priority 2021, published 2024).

Test system: S. aureus mature biofilm
Assay: Colony biofilm model, mature biofilm
Format: cell-based, Staphylococcus aureus
Conditions: FIG. 9a; powder amount estimated equal to that in the CPO-loaded MN sample, 24 h
Procedure: Biofilm Antibacterial Studies. Antibiofilm activity of MNs loaded with CPO was evaluated by the colony biofilm model. Overnight cultures of S. aureus and P. aeruginosa were diluted to 2×10^5 CFU mL−1 with TSB. Next, 50 μL of the diluted bacterial suspension was inoculated onto sterile 10 mm nitrocellulose disks placed on the surface of tryptic soy agar (TSA) plates. To allow biofilm development on the nitrocellulose membrane, the plates were incubated at 37° C. for 72 h. The developed biofilm was then nourished by aseptically transferring to new TSA plates every day for 4 days.31,38 After maturation of the biofilms, 12 mm disks of MNs loaded with CPO and control samples including PET films, CPO powder, and 12 mm disks of MNs without CPO were placed onto the biofilm using sterile forceps. The quantity of CPO powder in the control was estimated to be the amount of CPO powder present in the sample of MNs loaded with CPO. For all experiments, biofilms without any treatments were used as the negative control. The plates were further incubated at 37° C. for 24 h immediately after each treatment. […] The plates were further incubated at 37° C. for 24 h and viable CFU mL−1 were calculated.

`[Ca+2].[O-][O-]` [CPO, calcium peroxide] was tested, and the “effect on number of colonies in biofilm” value was “did not affect the number of colonies”.
